The values below come from PMC7771853, “Differential effects of novel kappa opioid receptor antagonists on dopamine neurons using acute brain slice electrophysiology” (PLoS ONE, 2020).

Experiment [1] concerns VTA neurons. Briefly: Wash in of antagonist: change in Iholding in VTA neurons. It is filed as cell-based, rat. Conditions: for change in Iholding on wash in: across the concentrations tested.
Experiment [2] relates to KOR. The arrangement: method as in PMID 21832171. The following applies: cited from earlier work.

Take `CC(C)CNCc1ccc(-c2ccccc2S(=O)(=O)N2CCCC2)cc1` [PF-04455242, 2-methyl-N-((2'-(pyrrolidin-1-ylsulfonyl)biphenyl-4-yl)methyl)propan-1-amine]: the “neurons with outward current independent of KOR activation” value in experiment [1] (1 μM antagonist) was 3/8. Also, the “extracellular signal-regulated kinase (ERK) phosphorylation” value in experiment [2] (HEK293 cells expressing KOR ref 21) is “did not generate”. The “c-Jun N terminal kinase (JNK) phosphorylation” value in experiment [2] (HEK293 cells expressing KOR, compared to other KOR antagonists ref 21) is “minimal”.

In the case of `CCc1cc(F)c2nc(N3CCC(NC4CCOCC4)CC3)c(-c3nc(C)no3)c(C)c2c1` [BTRX-335140, 1-(6-ethyl-8-fluoro-4-methyl-3-(3-methyl-1,2,4-oxadiazol-5-yl)quinolin-2-yl)-N-(tetrahydro-2H-pyran-4-yl)piperidin-4 amine], the “change in Iholding on wash in” value in experiment [1] was “means very close to zero”.

In the case of `CCc1ccc2nc(N3CCC(NCC4(C)COC4)CC3)c(-c3nc(C)no3)cc2c1` [BTRX-395750], the “change in Iholding on wash in” value in experiment [1] is “means very close to zero”.

For the molecule `Cc1cc(C)cc([C@@H]2CCCN2Cc2ccc(Oc3ccc(C(N)=O)cc3F)cc2)c1` [JNJ-67953964, (S)-3-fluoro-4-(4-((2-(3,5-dimethylphenyl)pyrrolidin-1-yl)methyl)phenoxy)benzamide], the “neurons with possible inward current on wash in” value in experiment [1] (10 nM antagonist) is 3 of 13.
